# Results reported in patent US8008009B2, “Method for ProNGF assay for in vitro diagnosis of cancer in particular breast, thyroid or lung cancer and therapeutic use of ProNGF” (Biomerieux, priority 2006, dated 2011).
# Columns and labels:
# Type in all cases: cell-based, human
# [1] = test system: MCF-7 cells; assay: Boyden chamber (Transwell) migration test; settings: 200 ng/mL in lower chamber, starving medium, 24 h, compared with starving medium alone
# Procedure: (§1) A “starving” medium was used, “starving” denoting a medium identical to the complete medium but without serum and supplemented with 2 μg/mL of fibronectin and 30 μg/mL of transferrin. For the various biological activity measurements, the various test molecules (ProNGF, NGF and galardin) are added to this starving medium. During the treatments, the media are renewed every 24 hours.
# (§2) The migration and invasion tests are carried out as previously described by Bracke et al. (1999, J Natl Cancer Inst, 91: 354-359). The protocols for using Boyden chambers and for invasion in collagen gel are described below.
# 12-well plates containing Transwells® with a pore diameter of 12 μm are equilibrated with starving medium and placed at 37° C. under 5% CO2 for 2 hours. The medium is then drawn off and replaced, in the lower chamber, by starving medium with the various test molecules, whereas, in the upper chamber, 40 000 cells are seeded in starving medium alone. […] Each condition is carried out in duplicate; a minimum of 40 fields is counted for each condition. […]
# The effects of ProNGF on the migration of mammary epithelial cells were comprehended by means of tests in Boyden chambers (Transwell®). Each condition was carried out in duplicate and a minimum of 40 fields was counted. […] The cells having crossed the Transwell® were then counted. *p<0.05, comparison with the starving medium alone condition.
# [2] = test system: MCF-7 cells; assay: Collagen type I gel invasion test; settings: 200 ng/mL, starving medium, 24 h
# Procedure: as §1, §2
# The collagen type I gel is prepared in the following way: 2.1 mL of collagen Type I, 0.8 mL of EMEM (10×), 4.6 mL of PBS, 0.8 mL of NaHCO3 at 0.25 M and 0.15 mL of 1 M NaOH. 1.25 mL are deposited in the wells of a 6-well plate. Once the gel has solidified, 100 000 cells are seeded with starving medium and the various test molecules for 24 hours. The cells are subsequently counted and the invasion index is determined (number of deep cells related to the number of cells at the surface). Each condition is carried out in triplicate and a minimum of 45 fields is counted per condition.
# The invasive capacity of the ProNGF-stimulated MCF-7 cells was tested in collagen type I gel. Each condition is carried out in triplicate and a minimum of 45 fields is counted per condition. […]
# [3] = test system: ProNGF; assay: Anti-ProNGF Western blotting after siRNA transfection, densitometry; settings: MCF-7 cells, 3 μg siRNA
# Procedure: The MCF-7 cells are passaged 3-4 days before transfection, so as to reach 50% confluence at the time of the experiment. Two million cells are taken up in 100 μl of Nucleofector Kit V solution and 3 μg of siRNA are added. The transfection program used on the Nucleofector is E-14. Anti-ProNGF Western blotting is carried out on the lysates recovered after 24 hours or after 48 hours, according to the protocol described in point 2.1. The relative amount of ProNGF detected by blotting is evaluated with the QuantityOne software (Bio-Rad), related to the equal loading (actin) and presented in the form of a histogram where 100% is assigned to the siGFP control condition.
# The MCF-7 cells were transfected with 3 μg interfering RNA (siRNA) directed against GFP (siGFP) or against ProNGF (siProNGF). After 24 to 48 h of culture, the cells were lysed and ProNGF Western blotting was carried out. The relative amount of ProNGF detected by blotting was evaluated with the QuantityOne software (Bio-Rad) related to the actin equal loading and presented in the form of a histogram where 100% is assigned to the siGFP control condition (FIG. 10). […] Densitometric analysis made it possible to evaluate this decrease at 59% after 24 h of transfection.
# [4] = test system: MDA-MB-231 cells; assay: Cell proliferation (cell count) after siRNA transfection; settings: 3 μg siRNA, EMEM culture medium, counted at 24, 48 and 96 h; Mock and siGFP controls double between 24 and 48 h
# Procedure: The interfering RNA (siRNA) transfection experiments were carried out with the Cell Line Nucleofector kit from Amaxa and the corresponding electroporation apparatus. This system makes it possible to obtain a high efficiency of gene transfer to the nucleus (nucleofection).
# The MDA-MB-231 cells are passaged 2 days before the transfection, so as to reach 80% confluence at the time of the experiment. The cells to be transfected are trypsinized and then counted. The cell pellet (1 million cells) is taken up in 100 μl of Nucleofector Kit V solution and 3 μg of siRNA are added. This cell suspension is transferred into an electroporation cuvette, placed in the Amaxa apparatus and electroporated according to the X-13 program. The cells are subsequently put back in culture in a well of a 6-well plate for 24-72 h. The cell proliferation is followed over time and the cells are counted at regular time intervals. Anti-Sortilin Western blotting is carried out on the lysates recovered at various times, according to the protocol described in the previous paragraph, “Expression of Sortilin”.
# MDA-MB-231 cells maintained in the EMEM culture medium were transfected either with culture medium alone (Mock), or with an interfering RNA directed against the GFP protein (siGFP) or with an interfering RNA directed against Sortilin (siSORT).
# [5] = test system: Sortilin; assay: Anti-Sortilin Western blotting after siRNA transfection; settings: MDA-MB-231 cells transfected with siRNA
# Procedure: For the Western blotting, the membranes are saturated with 4% bovine serum albumin in a solution of TBS (Tris Buffered Saline) 0.1% Tween 20 (17.54 g NaCl, 2.42 g Tris, 2 mL tween 20, QS 2 L, pH adjusted to 7.4) at ambient temperature for 2 hours. After saturation, the membranes are incubated overnight at 4° C. with the various primary antibodies: anti-Sortilin (BD612101 from BD Biosciences) at 1:2000, anti-Actin (A-2066 from Sigma) at 1:5000 in the saturation solution. After rinsing with TBS 0.1% Tween 20, the membranes are incubated for 1 hour at ambient temperature with an anti-rabbit secondary antibody (A-1949 from Sigma, France) coupled to horseradish peroxidase, at 1:20000 in the saturation solution. After rinsing, visualization is carried out with the ECL system (Pierce Interchim, France) according to the recommended data for use.
# The MDA-MB-231 cells are passaged 2 days before the transfection, so as to reach 80% confluence at the time of the experiment. The cells to be transfected are trypsinized and then counted. The cell pellet (1 million cells) is taken up in 100 μl of Nucleofector Kit V solution and 3 μg of siRNA are added. This cell suspension is transferred into an electroporation cuvette, placed in the Amaxa apparatus and electroporated according to the X-13 program. […] The cell proliferation is followed over time and the cells are counted at regular time intervals. […]
substance,measurement,setting,value
NGF: recombinant nerve growth factor obtained from R&D systems,cell migration,[1],"increase their ability to migrate, in a similar manner to NGF"
ProNGF: human recombinant nerve growth factor precursor sold by SCIL proteins,cell migration,[1],increase their ability to migrate
same,invasion (invasion index),[2],stimulates MCF-7 invasion
"siProNGF: interfering RNA directed against ProNGF; double-stranded RNA of SEQ ID No.5 and SEQ ID No.6 (chain 1 CAGUGUAUUCAAACAGUAUNN; chain 2 GUACUGUUUGAAUACACUGNN; listed as RNA, chemistry not given here)",expression of the ProNGF protein (photographs of the blots),[3]; 24 to 48 h of culture,decreases the expression of the ProNGF protein
same,decrease in expression of ProNGF (densitometric analysis),"[3]; after 24 h of transfection, 100% assigned to siGFP control, related to actin",59%
"siSORT: interfering RNA which decreases the expression of Sortilin; double-stranded RNA of SEQ ID No.3 and SEQ ID No.4 (chain 1 GGUGGUGUUAACAGCAGAGNN; chain 2 CUCUGCUGUUAACACCACCNN; listed as RNA, chemistry not given here)",number of MDA-MB-231 cells in culture over time,[4],does not increase over time
same,level of expression of the Sortilin protein,[5],decreased the level of expression of the Sortilin protein
